Experimental data: ChEMBL document CHEMBL1131273, “Unsymmetric nonpeptidic HIV protease inhibitors containing anthranilamide as a P2' ligand” (Bioorg Med Chem Lett, 1998); call rule not given here

system: not listed separately; test: Maximum plasma concentration of compound present in rats at the dose of 38 mg/kg in 15 min; format: ADME, organism-based; set-up: dose 38 mg/kg; conditions: rat

Row | SMILES | Cmax [nM]
1 | O=C(Nc1ccccc1C(=O)N[C@@H](Cc1ccccc1)C[C@H](O)[C@H](Cc1ccccc1)NC(=O)O[C@@H]1CCOC1)OCc1ccccn1 | 1040

system: not listed separately; test: Oral bioavailability in rat; format: ADME, organism-based; conditions: in vivo

Row | SMILES | bioavailability [%]
2 | O=C(Nc1ccccc1C(=O)N[C@@H](Cc1ccccc1)C[C@H](O)[C@H](Cc1ccccc1)NC(=O)OCc1cncs1)OCc1ccccn1 | 30
3 | Cc1c(O)cccc1C(=O)N[C@@H](Cc1ccccc1)[C@@H](O)C[C@H](Cc1ccccc1)NC(=O)c1ccccc1NC(=O)OCc1ccccn1 | 1
4 | O=C(Nc1ccccc1C(=O)N[C@@H](Cc1ccccc1)C[C@H](O)[C@H](Cc1ccccc1)NC(=O)O[C@@H]1CCOC1)OCc1ccccn1 | 6
5 | Cc1c(N)cccc1C(=O)N[C@@H](Cc1ccccc1)[C@@H](O)C[C@H](Cc1ccccc1)NC(=O)c1ccccc1NC(=O)OCc1ccccn1 | < 2

system: not listed separately; test: Ratio Cmax/EC50 was determined; format: functional; conditions: not given

Row | SMILES | Ratio
6 | O=C(Nc1ccccc1C(=O)N[C@@H](Cc1ccccc1)C[C@H](O)[C@H](Cc1ccccc1)NC(=O)OCc1cncs1)OCc1ccccn1 | > 30

molecular target: Human immunodeficiency virus type 1 protease (Human immunodeficiency virus 1, UniProt Q72874); test: Inhibitory activity against HIV protease; conditions: not given

Row | SMILES | Ki [nM]
7 | O=C(Nc1ccccc1C(=O)N[C@@H](Cc1ccccc1)[C@H](O)[C@H](O)[C@H](Cc1ccccc1)NC(=O)O[C@@H]1CCOC1)OCc1ccccn1 | 0.07
8 | O=C(Nc1ccccc1C(=O)N[C@@H](Cc1ccccc1)C[C@H](O)[C@H](Cc1ccccc1)NC(=O)OCc1cscn1)OCc1ccccn1 | 0.62
9 | CC(C)(C)OC(=O)N[C@@H](Cc1ccccc1)[C@@H](O)C[C@H](Cc1ccccc1)NC(=O)c1ccccc1NC(=O)OCc1ccccn1 | 0.13
10 | Cc1c(O)cccc1C(=O)N[C@@H](Cc1ccccc1)[C@@H](O)[C@@H](O)[C@H](Cc1ccccc1)NC(=O)c1ccccc1NC(=O)OCc1ccccn1 | 0.09
11 | Nc1ccc(C(=O)N[C@@H](Cc2ccccc2)[C@@H](O)C[C@H](Cc2ccccc2)NC(=O)c2ccccc2NC(=O)OCc2ccccn2)cc1 | 1.5
12 | Nc1cccc(C(=O)N[C@@H](Cc2ccccc2)[C@@H](O)C[C@H](Cc2ccccc2)NC(=O)c2ccccc2NC(=O)OCc2ccccn2)c1 | 0.4
13 | CCOC(=O)N[C@H](C(=O)N[C@@H](Cc1ccccc1)[C@@H](O)C[C@H](Cc1ccccc1)NC(=O)c1ccccc1NC(=O)OCc1ccccn1)[C@@H](C)CC | 0.02
14 | O=C(Nc1ccccc1C(=O)N[C@@H](Cc1ccccc1)[C@H](O)[C@H](O)[C@H](Cc1ccccc1)NC(=O)c1cccc(O)c1)OCc1ccccn1 | 0.5
15 | CC(C)(C)OC(=O)N[C@@H](Cc1ccccc1)[C@H](O)[C@H](O)[C@H](Cc1ccccc1)NC(=O)c1ccccc1NC(=O)OCc1ccccn1 | 0.45
16 | O=C(Nc1ccccc1C(=O)N[C@@H](Cc1ccccc1)[C@H](O)[C@H](O)[C@H](Cc1ccccc1)NC(=O)c1ccno1)OCc1ccccn1 | 0.4
17 | O=C(Nc1ccccc1C(=O)N[C@@H](Cc1ccccc1)C[C@H](O)[C@H](Cc1ccccc1)NC(=O)OCc1cncs1)OCc1ccccn1 | 0.03
18 | Cc1ccccc1C(=O)N[C@@H](Cc1ccccc1)[C@@H](O)C[C@H](Cc1ccccc1)NC(=O)c1ccccc1NC(=O)OCc1ccccn1 | 0.27
19 | O=C(Nc1ccccc1C(=O)N[C@@H](Cc1ccccc1)C[C@H](O)[C@H](Cc1ccccc1)NC(=O)OCc1cccnc1)OCc1ccccn1 | 0.01
20 | O=C(Nc1ccccc1C(=O)N[C@@H](Cc1ccccc1)[C@@H](O)[C@@H](O)[C@H](Cc1ccccc1)NC(=O)c1cccc(O)c1)OCc1ccccn1 | 1.7
21 | Nc1ccc(C(=O)N[C@@H](Cc2ccccc2)[C@H](O)[C@H](O)[C@H](Cc2ccccc2)NC(=O)c2ccccc2NC(=O)OCc2ccccn2)cc1 | 6.6
22 | O=C(Nc1ccccc1C(=O)N[C@@H](Cc1ccccc1)C[C@H](O)[C@H](Cc1ccccc1)NC(=O)c1cccc(O)c1)OCc1ccccn1 | 0.85
23 | O=C(Nc1ccccc1C(=O)N[C@@H](Cc1ccccc1)[C@H](O)[C@H](O)[C@H](Cc1ccccc1)NC(=O)c1ccccc1NC(=O)OCc1ccccn1)OCc1ccccn1 | 0.07
24 | Cc1c(O)cccc1C(=O)N[C@@H](Cc1ccccc1)[C@@H](O)C[C@H](Cc1ccccc1)NC(=O)c1ccccc1NC(=O)OCc1ccccn1 | 0.06
25 | CCOC(=O)N[C@@H](C(=O)N[C@@H](Cc1ccccc1)[C@@H](O)C[C@H](Cc1ccccc1)NC(=O)c1ccccc1NC(=O)OCc1ccccn1)C(C)C | 0.03
26 | CC(C)(C)OC(=O)N[C@@H](Cc1ccccc1)C[C@H](O)[C@H](Cc1ccccc1)NC(=O)c1ccccc1NC(=O)OCc1ccccn1 | 0.85
27 | O=C(Nc1ccccc1C(=O)N[C@@H](Cc1ccccc1)C[C@H](O)[C@H](Cc1ccccc1)NC(=O)c1ccno1)OCc1ccccn1 | 1.2
28 | O=C(Nc1ccccc1C(=O)N[C@@H](Cc1ccccc1)C[C@H](O)[C@H](Cc1ccccc1)NC(=O)O[C@@H]1CCOC1)OCc1ccccn1 | 0.04
29 | O=C(Nc1ccccc1C(=O)N[C@@H](Cc1ccccc1)C[C@H](O)[C@H](Cc1ccccc1)NC(=O)c1cscn1)OCc1ccccn1 | 4.7
30 | Cc1c(N)cccc1C(=O)N[C@@H](Cc1ccccc1)[C@@H](O)C[C@H](Cc1ccccc1)NC(=O)c1ccccc1NC(=O)OCc1ccccn1 | 0.12
31 | CC(C)(C)OC(=O)N[C@@H](Cc1ccccc1)[C@@H](O)[C@@H](O)[C@H](Cc1ccccc1)NC(=O)c1ccccc1NC(=O)OCc1ccccn1 | 0.13
32 | O=C(Nc1ccccc1C(=O)N[C@@H](Cc1ccccc1)[C@@H](O)C[C@H](Cc1ccccc1)NC(=O)c1cccc(O)c1)OCc1ccccn1 | 8.6
33 | Cc1c(O)cccc1C(=O)N[C@@H](Cc1ccccc1)C[C@H](O)[C@H](Cc1ccccc1)NC(=O)c1ccccc1NC(=O)OCc1ccccn1 | 0.68

system: CCRF-CEM; test: Antiviral activity against HIV-I 3b in CEM cells; format: functional, cell-based; conditions: Homo sapiens

Row | SMILES | EC50 [nM]
34 | O=C(Nc1ccccc1C(=O)N[C@@H](Cc1ccccc1)[C@H](O)[C@H](O)[C@H](Cc1ccccc1)NC(=O)O[C@@H]1CCOC1)OCc1ccccn1 | 60
35 | O=C(Nc1ccccc1C(=O)N[C@@H](Cc1ccccc1)C[C@H](O)[C@H](Cc1ccccc1)NC(=O)OCc1cscn1)OCc1ccccn1 | 600
36 | CC(C)(C)OC(=O)N[C@@H](Cc1ccccc1)[C@@H](O)C[C@H](Cc1ccccc1)NC(=O)c1ccccc1NC(=O)OCc1ccccn1 | 600
37 | Cc1c(O)cccc1C(=O)N[C@@H](Cc1ccccc1)[C@@H](O)[C@@H](O)[C@H](Cc1ccccc1)NC(=O)c1ccccc1NC(=O)OCc1ccccn1 | 20
38 | Nc1ccc(C(=O)N[C@@H](Cc2ccccc2)[C@@H](O)C[C@H](Cc2ccccc2)NC(=O)c2ccccc2NC(=O)OCc2ccccn2)cc1 | 500
39 | Nc1cccc(C(=O)N[C@@H](Cc2ccccc2)[C@@H](O)C[C@H](Cc2ccccc2)NC(=O)c2ccccc2NC(=O)OCc2ccccn2)c1 | 250
40 | Cc1nc(C(=O)N[C@@H](Cc2ccccc2)[C@@H](O)C[C@H](Cc2ccccc2)NC(=O)c2ccccc2NC(=O)OCc2ccccn2)cs1 | > 10000
41 | CCOC(=O)N[C@H](C(=O)N[C@@H](Cc1ccccc1)[C@@H](O)C[C@H](Cc1ccccc1)NC(=O)c1ccccc1NC(=O)OCc1ccccn1)[C@@H](C)CC | 50
42 | CC(C)(C)OC(=O)N[C@@H](Cc1ccccc1)[C@H](O)[C@H](O)[C@H](Cc1ccccc1)NC(=O)c1ccccc1NC(=O)OCc1ccccn1 | 490
43 | O=C(Nc1ccccc1C(=O)N[C@@H](Cc1ccccc1)[C@H](O)[C@H](O)[C@H](Cc1ccccc1)NC(=O)c1ccno1)OCc1ccccn1 | 800
44 | O=C(Nc1ccccc1C(=O)N[C@@H](Cc1ccccc1)C[C@H](O)[C@H](Cc1ccccc1)NC(=O)OCc1cncs1)OCc1ccccn1 | 200
45 | Cc1ccccc1C(=O)N[C@@H](Cc1ccccc1)[C@@H](O)C[C@H](Cc1ccccc1)NC(=O)c1ccccc1NC(=O)OCc1ccccn1 | 500
46 | O=C(Nc1ccccc1C(=O)N[C@@H](Cc1ccccc1)C[C@H](O)[C@H](Cc1ccccc1)NC(=O)OCc1cccnc1)OCc1ccccn1 | 350
47 | O=C(Nc1ccccc1C(=O)N[C@@H](Cc1ccccc1)[C@@H](O)[C@@H](O)[C@H](Cc1ccccc1)NC(=O)c1cccc(O)c1)OCc1ccccn1 | 900
48 | O=C(Nc1ccccc1C(=O)N[C@@H](Cc1ccccc1)C[C@H](O)[C@H](Cc1ccccc1)NC(=O)c1cccc(O)c1)OCc1ccccn1 | 300
49 | O=C(Nc1ccccc1C(=O)N[C@@H](Cc1ccccc1)[C@H](O)[C@H](O)[C@H](Cc1ccccc1)NC(=O)c1ccccc1NC(=O)OCc1ccccn1)OCc1ccccn1 | 60
50 | Cc1c(O)cccc1C(=O)N[C@@H](Cc1ccccc1)[C@@H](O)C[C@H](Cc1ccccc1)NC(=O)c1ccccc1NC(=O)OCc1ccccn1 | 30
51 | CCOC(=O)N[C@@H](C(=O)N[C@@H](Cc1ccccc1)[C@@H](O)C[C@H](Cc1ccccc1)NC(=O)c1ccccc1NC(=O)OCc1ccccn1)C(C)C | 7
52 | CC(C)(C)OC(=O)N[C@@H](Cc1ccccc1)C[C@H](O)[C@H](Cc1ccccc1)NC(=O)c1ccccc1NC(=O)OCc1ccccn1 | 490
53 | O=C(Nc1ccccc1C(=O)N[C@@H](Cc1ccccc1)C[C@H](O)[C@H](Cc1ccccc1)NC(=O)c1ccno1)OCc1ccccn1 | 2000
54 | O=C(Nc1ccccc1C(=O)N[C@@H](Cc1ccccc1)C[C@H](O)[C@H](Cc1ccccc1)NC(=O)O[C@@H]1CCOC1)OCc1ccccn1 | 30
55 | O=C(Nc1ccccc1C(=O)N[C@@H](Cc1ccccc1)C[C@H](O)[C@H](Cc1ccccc1)NC(=O)c1cscn1)OCc1ccccn1 | 3000
56 | Cc1c(N)cccc1C(=O)N[C@@H](Cc1ccccc1)[C@@H](O)C[C@H](Cc1ccccc1)NC(=O)c1ccccc1NC(=O)OCc1ccccn1 | 60
57 | CC(C)(C)OC(=O)N[C@@H](Cc1ccccc1)[C@@H](O)[C@@H](O)[C@H](Cc1ccccc1)NC(=O)c1ccccc1NC(=O)OCc1ccccn1 | 400
58 | O=C(Nc1ccccc1C(=O)N[C@@H](Cc1ccccc1)[C@@H](O)C[C@H](Cc1ccccc1)NC(=O)c1cccc(O)c1)OCc1ccccn1 | > 10000
59 | Cc1c(O)cccc1C(=O)N[C@@H](Cc1ccccc1)C[C@H](O)[C@H](Cc1ccccc1)NC(=O)c1ccccc1NC(=O)OCc1ccccn1 | > 1000

system: CCRF-CEM; test: Compound was tested for cellular toxicity against CEM cell line; format: functional, cell-based; conditions: Homo sapiens

Row | SMILES | IC50 [nM]
60 | CC(C)(C)OC(=O)N[C@@H](Cc1ccccc1)[C@H](O)[C@H](O)[C@H](Cc1ccccc1)NC(=O)c1ccccc1NC(=O)OCc1ccccn1 | 21000

molecular target: Human immunodeficiency virus type 1 protease (Human immunodeficiency virus 1) (UniProt Q72874); test: Compound was tested for inhibitory activity against HIV protease; conditions: concentration not given here

Row | SMILES | inhibition [%]
61 | Cc1nc(C(=O)N[C@@H](Cc2ccccc2)[C@@H](O)C[C@H](Cc2ccccc2)NC(=O)c2ccccc2NC(=O)OCc2ccccn2)cs1 | 61

system: CCRF-CEM; test: Antiviral activity against HIV-I 3b in CEM cells; No activity; format: functional, cell-based, Homo sapiens; conditions: not given

Row | SMILES | EC50
62 | O=C(Nc1ccccc1C(=O)N[C@@H](Cc1ccccc1)[C@H](O)[C@H](O)[C@H](Cc1ccccc1)NC(=O)c1cccc(O)c1)OCc1ccccn1 | Not Active
63 | Nc1ccc(C(=O)N[C@@H](Cc2ccccc2)[C@H](O)[C@H](O)[C@H](Cc2ccccc2)NC(=O)c2ccccc2NC(=O)OCc2ccccn2)cc1 | Not Active

system: not listed separately; test: Maximum plasma concentration of compound present in rats at the dose of 37 mg/kg in 15 min; format: ADME, organism-based; set-up: dose 37 mg/kg; conditions: rat

Row | SMILES | Cmax [nM]
64 | Cc1c(O)cccc1C(=O)N[C@@H](Cc1ccccc1)[C@@H](O)C[C@H](Cc1ccccc1)NC(=O)c1ccccc1NC(=O)OCc1ccccn1 | 30

system: not listed separately; test: Biological half-life was measured in plasma of rats; format: ADME, organism-based; conditions: rat

Row | SMILES | half-life [h]
65 | O=C(Nc1ccccc1C(=O)N[C@@H](Cc1ccccc1)C[C@H](O)[C@H](Cc1ccccc1)NC(=O)OCc1cncs1)OCc1ccccn1 | 8
66 | Cc1c(O)cccc1C(=O)N[C@@H](Cc1ccccc1)[C@@H](O)C[C@H](Cc1ccccc1)NC(=O)c1ccccc1NC(=O)OCc1ccccn1 | 2.22
